Experimental data reported in patent publication US10206907B2, “Compounds useful for the treatment of degenerative and inflammatory diseases” (GALAPAGOS NV, priority 2008, dated 2019).
pEC50: −log10 of the molar value. Where two headings read alike, the source gives them in different places.

Columns and labels:
[1] = Caco2 permeability (bi-directional); assay type: in vitro ADME, human; conditions: human, pH 7.4; Caco-2, apical to basolateral; read-out: Papp (A2B)
Method in brief: (§1)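 Compound concentrations in both chambers were measured by LC-MS/MS after 1 h incubation at 37 °C on an orbital shaker. Efflux ratio is PappB>A over PappA>B. Lucifer Yellow (50 μM in donor) confirmed layer integrity, with permeability of ≤100 nm/s required.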

[2] = system: Collagen Induced Arthritis (CIA); assay: Rat CIA model; assay type: in vivo; conditions: therapeutic dosing day 16 to day 30, p.o., statistical significance in several of the readouts
Experimental: Completed Freund's adjuvant (CFA) and incomplete Freund's adjuvant (IFA) were purchased from Difco. Bovine collagen type II (CII), lipopolysaccharide (LPS), and Enbrel were obtained from Chondrex (Isle d'Abeau, France); Sigma (P4252, L'Isle d'Abeau, France), Whyett (25 mg injectable syringe, France) Acros Organics (Palo Alto, Calif.), respectively. All other reagents used were of reagent grade and all solvents were of analytical grade.
Dark Agouti rats (male, 7-8 weeks old) were obtained from Harlan Laboratories (Maison-Alfort, France). Rats were kept on a 12 hours light/dark cycle (0700-1900). The temperature was maintained at 22° C., and food and water were provided ad libitum.
One day before the experiment, CII solution (2 mg/mL) was prepared with 0.05 M acetic acid and stored at 4° C. Just before the immunization, equal volumes of adjuvant (IFA) and CII were mixed by a homogenizer in a pre-cooled glass bottle in an ice water bath. Extra adjuvant and prolonged homogenization might be required if an emulsion is not formed. 0.2 mL of the emulsion was injected intradermally at the base of the tail of each rat on day 1, a second booster intradermal injection (CII solution at 2 mg/mL in CFA 0.1 mL saline) was performed on day 9. This immunization method was modified from published methods (Sims N A et al., (2004) Targeting osteoclasts with zoledronic acid prevents bone destruction in collagen-induced arthritis, Arthritis Rheum. 50 2338-2346; Jou et al., 2005).
The therapeutic effects of the test compounds were tested in the rat CIA model. Rats were randomly divided into equal groups and each group contained 10 rats. All rats were immunized on day 1 and boosted on day 9. Therapeutic dosing lasted from day 16 to day 30. The negative control group was treated with vehicle (MC 0.5%) and the positive control group with Enbrel (10 mg/kg, 3× week, s.c.). A compound of interest was typically tested at 3 doses, e.g. 3, 10, 30 mg/kg, p.o.
Arthritis was scored according the method of Khachigian 2006, Lin et al 2007 and Nishida et al. 2004. The swelling of each of the four paws was ranked with the arthritic score as follows: 0-no symptoms; 1-mild, but definite redness and swelling of one type of joint such as the ankle or wrist, or apparent redness and swelling limited to individual digits, regardless of the number of affected digits; 2-moderate redness and swelling of two or more types of joints; 3-severe redness and swelling of the entire paw including digits; 4-maximally inflamed limb with involvement of multiple joints (maximum cumulative clinical arthritis score 16 per animal) (Nishida et al., 2004).
Clinically, body weight loss is associated with arthritis (Shelton et al., 2005; Argiles et al., 1998; Rall, 2004; Walsmith et al., 2004). […] The change in body weight (%) after onset of arthritis was calculated as follows: […]
X-ray photos were taken of the hind paws of each individual animal. A random blind identity number was assigned to each of the photos, and the severity of bone erosion was ranked by two independent scorers with the radiological Larsen's score system as follows: 0-normal with intact bony outlines and normal joint space; 1—slight abnormality with any one or two of the exterior metatarsal bones showing slight bone erosion; 2—definite early abnormality with any three to five of the exterior metatarsal bones showing bone erosion; 3—medium destructive abnormality with all the exterior metatarsal bones as well as any one or two of the interior metatarsal bones showing definite bone erosions; 4—severe destructive abnormality with all the metatarsal bones showing definite bone erosion and at least one of the inner metatarsal joints completely eroded leaving some bony joint outlines partly preserved; 5—mutilating abnormality without bony outlines. This scoring system is a modification from Salvcmini et al., 2001; Bush et al., 2002; Sims et al., 2004; Jou et al., 2005. […]

[3] = system: JAK-STAT signalling in HeLa cells; assay: JAK-STAT signalling assay (OSM-triggered pSTAT1(2)-luciferase reporter in HeLa cells); assay type: cell-based; conditions: Homo sapiens, read-out: STAT signalling EC50
Method in brief: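 Read-out is oncostatin M–driven pSTAT1(2)-luciferase activity, corrected by co-transfected LacZ β-galactosidase, in transiently transfected HeLa cells cultured overnight at 37 °C, 10% CO2. Inhibition percentages against positive and negative controls were plotted across doses to derive EC50.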

[4] = Microsomal stability, rat liver microsomes; assay type: in vitro ADME; conditions: percentage of compound remaining after 60 minutes, 3 μM compound
Method in brief: (§2)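 Percent parent remaining after 60 min was determined by LCMS against a time-zero sample quenched before microsome addition. Incubations ran at 37°C with liver microsomes and a G6PDH-based NADPH-regenerating cofactor mix. Quench was MeOH or ACN (1:1).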

[5] = Microsomal stability, human liver microsomes; assay type: in vitro ADME; conditions: percentage of compound remaining after 60 minutes, 3 μM compound
Method in brief: as §2

[6] = system: MMP13 in SW1353 cells; assay: OSM/IL-1β signaling assay (MMP13 levels in SW1353 cells); assay type: cell-based; conditions: Homo sapiens, read-out: MMP13 EC50;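 further: secreted MMP13 captured by antibody, activated with APMA and its activity read by fluorescence, inhibition scaled between vehicle-treated triggered wells (0%) and untriggered wells (100%)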
[7] = system: TNF-alpha release; assay: Septic shock model (LPS-induced TNF release); assay type: in vivo, mouse; conditions: 30 mg/kg po, BALB/cJ mice, LPS ip; statistically significant
Experimental: Injection of lipopolysaccharide (LPS) induces a rapid release of soluble tumour necrosis factor (TNF-alpha) into the periphery. This model is used to analyse prospective blockers of TNF release in vivo.
Six BALB/cJ female mice (20 g) per group were treated at the intended dosing once, po. Thirty minutes later, LPS (15 μg/kg; E. Coli serotype 0111:B4) was injected ip. Ninety minutes later, mice were euthanized and blood was collected. Circulating TNF alpha levels were determined using commercially available ELISA kits. Dexamethasone (5 μg/kg) was used as a reference anti-inflammatory compound. Selected compounds are tested at one or multiple doses, e.g. 3 and/or 10 and/or 30 mg/kg, po.

[8] = system: Caco-2 cells; assay: Caco2 permeability (bi-directional); assay type: in vitro ADME, human; conditions: Caco-2, apical to basolateral
Method in brief: as §1

Papp A→B at 1 h, 10 µM [1]	pEC50 ([3]; HeLa)	Microsomal Stability Rat (%) [4]	Microsomal Stability Human (%) [5]	pEC50 ([6]; SW1353, 48 h)	Papp (A2B) [8]	pEC50 ([3]; HeLa cells, OSM-triggered pSTAT1(2)-luciferase reporter)	pEC50 ([6]; SW1353 cells, OSM and IL-1β triggered, MMP13 levels 48 hours after triggering)	Compound	efficacy in all readouts of the rat CIA study [2]	reduction in the TNF release [7]
4.65 ×10⁻⁶ cm/s	6.00 to 6.30	*** (*** 51-75)	**** (**** 76-100)	< 6.00				O=C(Nc1nc2cccc(-c3ccc(CN4CCS(=O)(=O)CC4)cc3)n2n1)C1CC1 [Compound 200, Cyclopropanecarboxylic acid {5-[4-(1,1-dioxo-thiomorpholin-4-ylmethyl)-phenyl]-[1,2,4]triazolo[1,5-a]pyridin-2-yl}-amide]	efficacious in all readouts	> 50%
					0.2! cmx10-6sec-1	6.00 to 6.30	< 6.00	N#CC1CN(C(=O)c2ccc(-c3cccc4nc(NC(=O)C5CC5)nn34)cc2)C1 [Compound 328, Cyclopropanecarboxylic acid {5-[4-(3-cyano-azetidine-1-carbonyl)-phenyl]-[1,2,4]triazolo[1,5-a]pyridin-2-yl)-amide]		
